Data published in patent US7226923B2, “Phthalazinone derivatives” (Hoffman-La Roche Inc., priority 2004, dated 2007).

How the values were obtained:
HCT 116 cells = experiment: CellTiter-Glo assay in HCT 116 cells; format: cell-based, human; conditions: Homo sapiens, HCT-116, 120 h, 5 days incubation, 30 μM to 0.0015 μM
Description: CellTiter-Glo™ Assay in HCT 116 Cells
The CellTiter-Glo™ Luminescent Cell Viability Assay (Promega) is a homogeneous method of determining the number of viable cells in culture based on quantitation of the ATP present, which signals the presence of metabolically active cells.
HCT 116 cells (human colon carcinoma, ATCC-No. CCl-247) were cultivated in RPMI 1640 medium with GlutaMAX™ I (Invitrogen, Cat-No. 61870-010), 2.5% Fetal Calf Serum (FCS, Sigma Cat-No. F4135 (FBS)); 100 Units/ml penicillin/100 μg/ml streptomycin (=Pen/Strep from Invitrogen Cat. No. 15140). For the assay the cells were seeded in 384 well plates, 1000 cells per well, in the same medium. The next day the test compounds were added in various concentrations ranging from 30 μM to 0.0015 μM (10 concentrations, 1:3 diluted). After 5 days the CellTiter-Glo™ assay was done according to the instructions of the manufacturer (CellTiter-Glo™ Luminescent Cell Viability Assay, from Promega). In brief: the cell-plate was equilibrated to room temperature for approximately 30 minutes and than the CellTiter-Glo™ reagent was added. The contents were carefully mixed for 15 minutes to induce cell lysis. After 45 minutes the luminescent signal was measured in Victor 2, (scanning multiwell spectrophotometer, Wallac).
1st. Day: • Medium: RPMI 1640 with GlutaMAX™ I (Invitrogen, Cat-Nr. 61870), 5% FCS (Sigma Cat.-No. F4135), Pen/Strep (Invitrogen, Cat No. 15140). • HCT116 (ATCC-No. CCl-247): 1000 cells in 60 μl per well of 384 well plate (Greiner 781098, μClear-plate white) • After seeding incubate plates 24 h at 37° C., 5% CO2
2nd. Day: Induction (Treatment with Compounds, 10 Concentrations):
In order to achieve a final concentration of 30 μM as highest concentration 3.5 μl of 10 mM compound stock solution were added directly to 163 μl media. Then step e) of the dilution procedure described below, was followed.

Aurora A = biological target: T1, Aurora A (Homo sapiens, UniProt O14965); experiment: IC50 determination for inhibitors of Aurora A (96 MTP-ELISA); format: biochemical; conditions: His4-tagged full-length Aurora A 250 ng/ml, PKB-GSK2 200 nM, ATP 4 μM, 90 min at room temperature, read-out: IC50 Aurora A kinase inhibition
T1 construct: C-terminally Histidine4 (His4)-tagged Aurora A full-length protein
T1 sequence (O14965 1-403): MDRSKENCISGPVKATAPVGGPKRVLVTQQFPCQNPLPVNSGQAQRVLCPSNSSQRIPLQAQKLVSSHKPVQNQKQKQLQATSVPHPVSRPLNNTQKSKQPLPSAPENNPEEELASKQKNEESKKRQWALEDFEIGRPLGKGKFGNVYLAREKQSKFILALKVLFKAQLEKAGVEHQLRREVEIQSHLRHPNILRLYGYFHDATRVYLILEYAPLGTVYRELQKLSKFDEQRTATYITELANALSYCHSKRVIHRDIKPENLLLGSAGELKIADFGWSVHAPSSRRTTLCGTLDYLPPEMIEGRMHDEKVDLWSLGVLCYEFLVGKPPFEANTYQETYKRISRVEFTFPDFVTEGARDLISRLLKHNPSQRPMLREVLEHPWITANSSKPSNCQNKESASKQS
Protocol: IC50 Determination for Inhibitors of Aurora A
• Aurora A is a serine threonine kinase involved in spindle assembly and chromosome segregation.
The assay is a typically ELISA-type assay where biotinylated substrate (PKB-GSK2) is phosphorylated. Phosphorylation is detected by peroxidase (POD) labelled polyclonal antibody (PAK<M-Ig>S-IgG-POD) and phosphopeptide monoclonal antibody (Mab) (MAK<P-GSK>M-27E5-IgG). The assay is validated for IC50-determination.
Method • This assay is performed in 96-well format for IC50 determination with 5 samples (each with 8 concentrations by twofold testing), 100 μl incubation volume and the following plate layout: […]

| Structure (SMILES) | IC50 (HCT 116 cells) [nM] | IC50 (Aurora A) [nM] |
| --- | --- | --- |
| Cc1cc(Nc2nn(CC(O)c3ccccc3)c(=O)c3ccccc23)n[nH]1 (stereo not drawn) [Example E-13, 2-(2-Hydroxy-2-phenyl-ethyl)-4-(5-methyl-1H-pyrazol-3-ylamino)-2H-phthalazin-1-one] | 10000 to 100000 | 100 to 1000 |
| COCCn1nc(Nc2cc(C)n[nH]2)c2ccccc2c1=O [Example O-1, 2-(2-Methoxyethyl)-4-(5-methyl-2H-pyrazol-3-ylamino)-2H-phthalazin-1-one] | 10000 to 100000 | 100 to 1000 |
| CC(C)n1nc(Nc2cc(C3CC3)n[nH]2)c2ccc(N(C)C)cc2c1=O [Example F-9, 4-(5-Cyclopropyl-2H-pyrazol-3-ylamino)-7-dimethylamino-2-isopropyl-2H-phthalazin-1-one] | 100 to 10000 | 1 to 100 |
| COCc1ccc2c(Nc3cc(C)[nH]n3)nn(C(C)C)c(=O)c2c1 [Example K-1, 2-Isopropyl-7-methoxymethyl-4-(5-methyl-1H-pyrazol-3-ylamino)-2H-phthalazin-1-one] | 100 to 10000 | 1 to 100 |
| Cc1cc(Nc2nn(Cc3ccc(F)cc3)c(=O)c3ccccc23)n[nH]1 [Example A-20, 2-(4-Fluoro-benzyl)-4-(5-methyl-1H-pyrazol-3-ylamino)-2H-phthalazin-1-one] | 100 to 10000 | 1 to 100 |
| Cc1cc(Nc2nn(-c3ccc(C(F)(F)F)cc3)c(=O)c3ccccc23)n[nH]1 [Example A-25, 4-(5-Methyl-1H-pyrazol-3-ylamino)-2-(4-trifluoromethyl-phenyl)-2H-phthalazin-1-one] | 100 to 10000 | 1 to 100 |
| COc1ccc2c(=O)n(C(C)C)nc(Nc3cc(C)[nH]n3)c2c1 [Example G-9, 2-Isopropyl-6-methoxy-4-(5-methyl-1H-pyrazol-3-ylamino)-2H-phthalazin-1-one] | 100 to 10000 | 1 to 100 |
| Cc1cc(Nc2nn(C(C)C)c(=O)c3c(N4CCOCC4)cccc23)n[nH]1 [Example F-3, 2-Isopropyl-4-(5-methyl-1H-pyrazol-3-ylamino)-8-morpholino-2H-phthalazin-1-one] | 100 to 10000 | 1 to 100 |
| CNC(=O)Nc1ccc2c(Nc3cc(C)[nH]n3)nn(C(C)C)c(=O)c2c1 [Example I-13, 1-[3-Isopropyl-1-(5-methyl-1H-pyrazol-3-ylamino)-4-oxo-3,4-dihydro-phthalazin-6-yl]-3-methyl-urea] | 100 to 10000 | 1 to 100 |
| Cc1cc(Nc2nn(-c3ccc(OC(F)(F)F)cc3)c(=O)c3ccccc23)n[nH]1 [Example W-2, 4-(5-Methyl-1H-pyrazol-3-ylamino)-2-(4-trifluoromethoxy-phenyl)-2H-phthalazin-1-one] | 100 to 10000 | 1 to 100 |
| Cc1cc(Nc2nn(C)c(=O)c3ccccc23)n[nH]1 [Example A-3, 2-Methyl-4-(5-methyl-1H-pyrazol-3-ylamino)-2H-phthalazin-1-one] | 100 to 10000 | 100 to 1000 |
| Cc1cc(Nc2nn(Cc3ccccc3)c(=O)c3ccccc23)n[nH]1 [Example A-2, 2-Benzyl-4-(5-methyl-1H-pyrazol-3-ylamino)-2H-phthalazin-1-one] | 100 to 10000 | 65 |
| Cc1cc(Nc2nn(C(C)C)c(=O)c3cc(OCc4ccncc4)ccc23)n[nH]1 [Example G-4, 2-Isopropyl-4-(5-methyl-1H-pyrazol-3-ylamino)-7-(pyridin-4-ylmethoxy)-2H-phthalazin-1-one] | 100 to 10000 | 1 to 100 |
| Cc1cc(Nc2nn(C(C)C)c(=O)c3cc(N(C)C(=O)NC(C)C)ccc23)n[nH]1 [Example I-6, 3-Isopropyl-1-[3-isopropyl-1-(5-methyl-1H-pyrazol-3-ylamino)-4-oxo-3,4-dihydro-phthalazin-6-yl]-1-methyl-urea] | 100 to 10000 | 1 to 100 |

Results, then the compound that gave them:

| IC50 (HCT 116 cells) [nM] | IC50 (Aurora A) [nM] | Structure (SMILES) |
| --- | --- | --- |
| 100 to 10000 | 1 to 100 | Cc1cc(Nc2nn(Cc3ccccn3)c(=O)c3ccccc23)[nH]n1 [Example A-22, 4-(5-Methyl-2H-pyrazol-3-ylamino)-2-pyridin-2-ylmethyl-2H-phthalazin-1-one] |
| 100 to 10000 | 100 to 1000 | Cc1cc(Nc2nn(-c3ccncc3)c(=O)c3ccccc23)n[nH]1 [Example X-1, 4-(5-Methyl-1H-pyrazol-3-ylamino)-2-pyridin-4-yl-2H-phthalazin-1-one] |
| 100 to 10000 | 1 to 100 | Cc1cc(Nc2nn(C(C)C)c(=O)c3cc(OCc4ccccn4)ccc23)n[nH]1 [Example G-2, 2-Isopropyl-4-(5-methyl-1H-pyrazol-3-ylamino)-7-(pyridin-2-ylmethoxy)-2H-phthalazin-1-one] |
| 100 to 10000 | 1 to 100 | Cc1cc(Nc2nn(Cc3ccc(N)cc3)c(=O)c3ccccc23)n[nH]1 [Example C-1, 2-(4-Aminobenzyl)-4-(5-methyl-1H-pyrazol-3-ylamino)-2H-phthalazin-1-one] |
| 100 to 10000 | 100 to 1000 | Cc1cc(Nc2nn(C(C)C)c(=O)c3ccc(CO)cc23)n[nH]1 [Example M-10, 6-Hydroxymethyl-2-isopropyl-4-(5-methyl-1H-pyrazol-3-ylamino)-2H-phthalazin-1-one] |
| 100 to 10000 | 1 to 100 | Cc1cc(Nc2nn(-c3ccc(S(=O)(=O)C(C)(C)C)cc3)c(=O)c3ccccc23)n[nH]1 [Example ZA-1, 2-[4-(2-Methyl-propane-2-sulfonyl)-phenyl]-4-(5-methyl-1H-pyrazol-3-ylamino)-2H-phthalazin-1-one] |
| 100 to 10000 | 1 to 100 | COc1ccc2c(Nc3cc(C)[nH]n3)nn(C(C)C)c(=O)c2c1 [Example G-1, 2-Isopropyl-4-(5-methyl-1H-pyrazol-3-ylamino)-7-methoxy-2H-phthalazin-1-one] |
| 100 to 10000 | 1 to 100 | COc1cccc(C(=O)Cn2nc(Nc3cc(C)[nH]n3)c3ccccc3c2=O)c1 [Example E-5, 2-[2-(3-Methoxy-phenyl)-2-oxo-ethyl]-4-(5-methyl-1H-pyrazol-3-ylamino)-2H-phthalazin-1-one] |
| 100 to 10000 | 100 to 1000 | Cc1cc(Nc2nn(-c3ccc(NC(=O)C(C)(C)C)cc3)c(=O)c3ccccc23)n[nH]1 [Example T-3, 2,2-Dimethyl-N-{4-[4-(5-methyl-1H-pyrazol-3-ylamino)-1-oxo-1H-phthalazin-2-yl]-phenyl}-propionamide] |
| 100 to 10000 | 1 to 100 | Cc1cc(Nc2nn(C(C)C)c(=O)c3cc(N(C)Cc4ccccn4)ccc23)n[nH]1 [Example I-4, 2-Isopropyl-4-(5-methyl-1H-pyrazol-3-ylamino)-7-(methyl-pyridin-2-ylmethyl-amino)-2H-phthalazin-1-one] |
| 100 to 10000 | 100 to 1000 | Cc1cc(Nc2nn(Cc3csc(C)n3)c(=O)c3ccccc23)n[nH]1 [Example A-16, 4-(5-Methyl-1H-pyrazol-3-ylamino)-2-(2-methyl-thiazol-4-ylmethyl)-2H-phthalazin-1-one] |
| 100 to 10000 | 1 to 100 | Cc1cc(Nc2nn(C(C)C)c(=O)c3cc(N4CCN(C)CC4)ccc23)[nH]n1 [Example F-5, 2-Isopropyl-7-(4-methyl-piperazin-1-yl)-4-(5-methyl-2H-pyrazol-3-ylamino)-2H-phthalazin-1-one] |
| 420 | 1 to 100 | Cc1cc(Nc2nn(C(C)C)c(=O)c3c(N(C)C)cccc23)n[nH]1 [Example F-8, 2-Isopropyl-4-(5-methyl-1H-pyrazol-3-ylamino)-8-dimethylamino-2H-phthalazin-1-one] |
